Assay results taken from patent US9617213B2, “Synthetic analogues of xanthohumol” (UNIVERSITA' DI PISA, priority 2013, dated 2017).
Like-named read-outs stand apart in the source and are kept apart here.

What was measured:
HUVEC cells [1] = test: Migration (chemotaxis) assay, Boyden chambers; assay type: cell-based, human; details: for reduction of endothelial cell migration: 10 μM, HUVEC pre-treated for 24 hours, values standardised on control, FIG. 7; for inhibition of migration: 24 hours' pre-treatment, 10 μM and 20 μM, *P<0.05, FIG. 2
Experimental: The chemotaxis assay was conducted with Boyden chambers [Albini A, Iwamoto Y, Kleinman H K, Martin G R, Aaronson S A, Kozlowski J M, McEwan R N. A rapid in vitro assay for quantitating the invasive potential of tumor cells. Cancer Res. 1987 Jun. 15; 47(12):3239-45; Albini A, Benelli R. The chemoinvasion assay: a method to assess tumor and endothelial cell invasion and its modulation. Nat Protoc. 2007; 2(3):504-11]. The HUVEC cells (5×10^4) were pre-treated for 24 hours with the inhibitors, resuspended in serum-free medium, and plated in the upper compartment of the Boyden chamber. The complete medium was added in the lower compartment of the chamber, and used as chemoattractant. The two chambers were separated by polycarbonate filters ([…]) coated with collagen (50 μg/mL). After 6 hours' incubation at 37° C., the filters were recovered, the cells present on the upper surface of the filter were mechanically removed, and those on the lower surface were fixed in absolute ethanol and stained with DAPI. The cells were then counted in eight consecutive fields on each filter by fluorescence microscopy.

HUVEC cells [2] = test: Morphogenesis on matrigel (capillary-like structures); assay type: cell-based, human; details: 24 hours' pre-treatment, FIG. 4
Experimental: A 24-well plate was coated with 300 μl/well of liquid matrigel (10 mg/mL) at 4° C., using cold pipettes and avoiding bubbles. The plate was then incubated for one hour at 37° C., until the matrigel polymerised. The HUVEC cells, pre-treated with the different inhibitors, were resuspended in 1 mL of complete medium and then plated in the different wells. The serum-free medium was used as negative control (CTRL−). After 6 hours' incubation, the organisation of the cells in capillary-like structures was examined with an inverted microscope equipped with a camera for the acquisition of images and a digital analysis system.

HUVEC cells [3] = test: Apoptosis assay (Annexin V / 7-AAD cytofluorimetry); assay type: cell-based, human; details: 10 μM, 24 hours, FIG. 5
Experimental: (§1) The HUVEC cells (1×10^5) were plated in six-well plates and left to adhere for 18 hours. The next day, the cells were pre-treated with inhibitors LR6 and LR7 (10 μM) in the presence of complete medium. After 24 hours, the cells were detached, washed with PBS and transferred to tubes for cytofluorimetric analysis. The cells were pelletted and resuspended in Annexin V-binding buffer (0.01M HEPES (4-(2-hydroxyethyl)-1-piperazineethanesulphonic acid) (pH 7.4); 0.14 M NaCl; 2.5 mM CaCl2. Fluorescein isothiocyanate Annexin V and 7-amino-actinomycin D were added to the tubes, and the cells were incubated for 15 minutes at room temperature in the dark. The cells were then washed in PBS, the supernatant was removed and the cells resuspended in […] of binding buffer. The samples were analysed on a FACSCanto cytofluorimeter (BD Biosciences), and analysed with FACSDiva Software 6.1.2.

[4] = as above; assay type: cell-based, human; details: human, HUVEC cells, FIG. 5, read-out: percentage of viability
Experimental: as §1

HUVEC cells [5] = test: Invasion (chemoinvasion) assay, Boyden chambers, matrigel; assay type: cell-based, human; details: for invasion in the presence of serum (FBS): 24 hours' pre-treatment, even at 10 μM, *P<0.05, FIG. 3; for reduction of endothelial cell invasion: 10 μM, HUVEC pre-treated for 24 hours, values standardised on control, FIG. 6
Experimental: The chemoinvasion assay was conducted with Boyden chambers [Albini A, Iwamoto Y, Kleinman H K, Martin G R, Aaronson S A, Kozlowski J M, McEwan R N. A rapid in vitro assay for quantitating the invasive potential of tumor cells. Cancer Res. 1987 Jun. 15; 47(12):3239-45; Albini A, Benelli R. The chemoinvasion assay: a method to assess tumor and endothelial cell invasion and its modulation. Nat Protoc. 2007; 2(3):504-11]. The HUVEC cells (5×10^4) were pre-treated for 24 hours with the inhibitors, resuspended in serum-free medium, and plated in the upper compartment of the chamber. The complete medium was added in the lower compartment of the chamber, and used as chemoattractant. The 12 m polycarbonate filters were coated with matrigel (1 mg/mL). After 18 hours' incubation, the cells in the upper compartment of the chamber were mechanically removed, while those adhering to the lower surface of the filter were fixed in absolute ethanol and stained with DAPI. The cells were counted double-blind in eight consecutive fields by fluorescence microscopy.

HUVEC cells [6] = test: MTT colorimetric viability assay; assay type: cell-based, human; details: for inhibition of cell growth: 20 μM, after 24 hours' treatment, FIG. 1
Experimental: The viability of the HUVEC cells was evaluated with the MTT colorimetric assay (3-(4,5-dimethylthiazol-2-yl)-2,5-diphenyltetrazolium bromide). The cells (1000/well) were plated in complete medium in 96-well plates, and after complete adherence the medium was replaced with a new medium with or without the various inhibitors at different concentrations. The plates were processed at different incubation times (24, 48, 72 and 96 hours), and the absorbance was measured at 570 nm.

[7] = test system: prostate cancer cell lines; details: 40 μM; cited from earlier work
MMP-2 = biological target: T1, MMP-2 (Homo sapiens, UniProt P08253); details: 10 μM; cited from earlier work
T1 sequence (P08253 110-660): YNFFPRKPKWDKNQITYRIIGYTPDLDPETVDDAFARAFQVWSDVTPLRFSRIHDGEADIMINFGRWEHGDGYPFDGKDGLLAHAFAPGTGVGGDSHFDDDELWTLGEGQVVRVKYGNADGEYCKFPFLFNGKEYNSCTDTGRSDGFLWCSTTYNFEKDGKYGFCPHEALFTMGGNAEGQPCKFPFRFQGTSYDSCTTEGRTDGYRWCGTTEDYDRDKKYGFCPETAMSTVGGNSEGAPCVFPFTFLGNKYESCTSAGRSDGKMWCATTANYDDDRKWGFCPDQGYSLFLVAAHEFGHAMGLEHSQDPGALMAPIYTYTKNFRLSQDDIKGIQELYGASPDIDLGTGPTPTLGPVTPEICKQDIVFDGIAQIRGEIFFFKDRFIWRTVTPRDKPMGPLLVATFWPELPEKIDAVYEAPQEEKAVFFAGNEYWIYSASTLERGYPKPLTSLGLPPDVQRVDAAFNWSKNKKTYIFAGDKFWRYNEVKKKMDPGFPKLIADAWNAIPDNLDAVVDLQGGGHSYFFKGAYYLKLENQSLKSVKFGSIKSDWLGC

endothelial cells [8] = details: cited from earlier work
[9] = test system: hepatocarcinoma cell lines; details: 25 μM; cited from earlier work
hepatocytes = details: high concentrations (exceeding 100 μM); cited from earlier work
fibrosarcoma cells [10] = details: 10 μM; cited from earlier work
MMP-9 = MMP-9 (Homo sapiens, UniProt P14780); details: 10 μM; cited from earlier work
MMP-9, sequence (P14780 94-707, species assumed): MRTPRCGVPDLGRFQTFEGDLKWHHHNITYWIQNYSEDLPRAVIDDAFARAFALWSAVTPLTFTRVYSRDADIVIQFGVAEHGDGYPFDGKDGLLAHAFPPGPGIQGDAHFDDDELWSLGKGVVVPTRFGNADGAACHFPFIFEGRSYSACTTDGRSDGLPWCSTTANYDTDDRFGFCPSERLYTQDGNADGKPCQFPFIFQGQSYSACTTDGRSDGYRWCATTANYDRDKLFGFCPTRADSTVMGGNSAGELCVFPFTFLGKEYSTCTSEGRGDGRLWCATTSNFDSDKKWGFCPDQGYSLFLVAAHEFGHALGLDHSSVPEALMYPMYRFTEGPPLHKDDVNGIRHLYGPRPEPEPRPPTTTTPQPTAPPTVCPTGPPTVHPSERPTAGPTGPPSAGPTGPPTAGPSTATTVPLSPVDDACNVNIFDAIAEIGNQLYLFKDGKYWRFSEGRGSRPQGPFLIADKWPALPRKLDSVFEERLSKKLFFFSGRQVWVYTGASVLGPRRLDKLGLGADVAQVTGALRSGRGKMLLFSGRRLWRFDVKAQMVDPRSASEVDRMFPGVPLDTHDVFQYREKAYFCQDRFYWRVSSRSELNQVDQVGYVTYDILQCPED

endothelial cells [11] = details: cited from earlier work; remark: listed apart in the source
endothelial cells [12] = details: cited from earlier work; remark: listed apart in the source
fibrosarcoma cells [13] = details: cited from earlier work

## COc1cc(O)c(CC=C(C)C)c(O)c1C(=O)/C=C/c1ccc(F)cc1 [LR6, (E)-1-[2,4-dihydroxy-6-methoxy-3-(3-methyl-but-2-enyl)prenyl]-3-(4-fluorophenyl)-prop-2-en-1-one]
HUVEC cells [1]
  reduction of endothelial cell migration: ~75%
  inhibition of migration: Significant inhibition of migration
HUVEC cells [2]
  FBS-dependent morphogenesis: interferes with FBS-dependent morphogenesis
HUVEC cells [3]
  apoptosis: absence of apoptosis
[4]
  viability at 24 h, 10 µM: ~90%
HUVEC cells [5]
  invasion in the presence of serum (FBS): significantly reduces invasion
HUVEC cells [6]; 10 μM, after 72 and 96 hours' treatment
  cell proliferation: able to reduce cell proliferation
HUVEC cells [6]
  inhibition of cell growth: Significant inhibition of cell growth

## COCOc1cc(OC)c(C(=O)/C=C/c2ccc(F)cc2)c(O)c1CC=C(C)C [LR7, (E)-3-(4-fluorophenyl)-1-[2-hydroxy-6-methoxy-4-(methoxymethyloxy)-3-(3-methyl-but-2-enyl]-phenyl)prop-2-en-1-one]
HUVEC cells [1]
  inhibition of migration: Significant inhibition of migration
HUVEC cells [2]
  FBS-dependent morphogenesis: interferes with FBS-dependent morphogenesis
HUVEC cells [3]
  apoptosis: absence of apoptosis
[4]
  viability at 24 h, 10 µM: ~90%
HUVEC cells [5]
  invasion in the presence of serum (FBS): significantly reduces invasion
HUVEC cells [6]
  inhibition of cell growth: Significant inhibition of cell growth
HUVEC cells [6]; 10 and 20 μM, after 48 hours' incubation
  cytostatic activity: exhibited cytostatic activity

## COc1cc(O)c(CC=C(C)C)c(O)c1C(=O)/C=C/c1ccc(F)c(F)c1 [LR16, (E)-3-(3,4-difluorophenyl)-1-[2,4-dihydroxy-6-methoxy-3-(3-methyl-but-2-enyl)-phenyl]-prop-2-en-1-one]
HUVEC cells [5]
  reduction of endothelial cell invasion: about 80%

## COCOc1cc(OC)c(C(=O)/C=C/c2ccc(F)cc2F)c(OCOC)c1CC=C(C)C [LR17, (E)-3-(2,4-difluoro-phenyl)-1-[6-methoxy-2,4-dimethoxymethyloxy-3-(3-methyl-but-2-enyl)phenyl]-prop-2-en-1-one]
HUVEC cells [5]
  reduction of endothelial cell invasion: ~75%

## COc1cc(O)c(CC=C(C)C)c(O)c1C(=O)/C=C/c1ccc(F)cc1F [LR19, (E)-3-(2,4-difluorophenyl)-1-[2,4-dihydroxy-6-methoxy-3-(3-methyl-but-2-enyl)-phenyl]-prop-2-en-1-one]
HUVEC cells [1]
  reduction of endothelial cell migration: about 80%

## COc1cc(O)c(CC=C(C)C)c(O)c1C(=O)/C=C/c1ccc(O)cc1 [XN, Xanthohumol]
[7]
  growth of prostate cancer cell lines: inhibitory effect
MMP-2
  activity of MMP-2: strongly inhibited
Endothelial cells [8]; 5 μM
  chemotaxis of the endothelial cells and invasion in vitro: inhibits chemotaxis
Endothelial cells [8]; 10 μM
  chemotaxis of the endothelial cells and invasion in vitro: complete inhibition
[9]
  apoptosis: induces apoptosis
hepatocytes
  viability of the hepatocytes: no effect on the viability
HUVEC cells [1]
  reduction of endothelial cell migration: about 50%
Fibrosarcoma cells [10]
  invasion by fibrosarcoma cells: inhibits invasion
HUVEC cells [5]
  reduction of endothelial cell invasion: about 60%
MMP-9
  activity of MMP-9: inhibits
Endothelial cells [11]; 10 μM
  cytotoxic activity against activated endothelial cells: potent cytotoxic activity
Endothelial cells [11]
  concentration at which cell death is observed: exceeding 25 μM
Endothelial cells [11]; concentrations lower than 10 μM, even after long exposure times
  effect on endothelial cells at lower concentrations: does not exhibit any significant effect
Endothelial cells [12]; 200 μM
  toxicity: no toxicity was observed
Endothelial cells [12]
  concentration interval in which effects on morphogenesis are evident: 5 to 10 µM

## COc1cc2c(c(O)c1C(=O)/C=C/c1ccc(O)cc1)C=CC(C)(C)O2 [XNC, xanthohumol C]
Fibrosarcoma cells [13]
  cytotoxic effect: loss of cytotoxic activity

## O-methylxanthohumol ether SEM [XN-SEM]
Fibrosarcoma cells [13]
  cytotoxic effect: no cytotoxic effect
